The results in this text go back to patent EP4745153A1, “GLP-1, GIP AND GCG RECEPTOR […] USE THEREOF” (Jiangsu Hengrui Pharmaceuticals Co., Ltd., priority 2023, dated 2025).

Like-named read-outs stand apart in the source and are kept apart here. Starred links: 1 amine or outer side, 2 acyl side, 3 side chain; linkers in the order of their positions; H or OH if unused. Non-standard residues stand in square brackets, D forms with d. Residues, ends and D or L forms follow the SMILES beside them. Groups on a side chain read outwards from the residue. No end group written: not given here. ξ: configuration not given here. *: point of attachment. C20 diacid = O=C(O)CCCCCCCCCCCCCCCCCCC(=O)*; C17 diacid = O=C(O)CCCCCCCCCCCCCCCC(=O)*; γGlu = O=C(O)[C@H](CCC(=O)[*:2])N[*:1]; αMeK = C[C@](N)(CCCCN)C(=O)O; ξIva = CCC(C)(N)C(=O)O; AEEA = NCCOCCOCC(=O)O; Aib = CC(C)(N)C(=O)O

One data set deals with T1, human GIPR (Homo sapiens, UniProt P48546).
T1 construct: expressed in transfected cells; host or cells: CHO-K1 clonal cell line
T1 sequence (P48546 22-466): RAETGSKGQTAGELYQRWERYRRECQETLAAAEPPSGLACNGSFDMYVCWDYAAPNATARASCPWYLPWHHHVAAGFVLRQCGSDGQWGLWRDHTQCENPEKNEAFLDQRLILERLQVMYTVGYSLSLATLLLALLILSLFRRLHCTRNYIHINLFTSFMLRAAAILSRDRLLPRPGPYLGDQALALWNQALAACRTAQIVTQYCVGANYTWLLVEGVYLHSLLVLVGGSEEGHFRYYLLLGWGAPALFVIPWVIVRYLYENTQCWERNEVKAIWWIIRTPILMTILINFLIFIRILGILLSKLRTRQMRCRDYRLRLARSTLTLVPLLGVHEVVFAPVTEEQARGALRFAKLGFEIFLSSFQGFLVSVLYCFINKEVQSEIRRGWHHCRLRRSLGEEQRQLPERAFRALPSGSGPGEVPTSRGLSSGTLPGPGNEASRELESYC
Kind of data set: cAMP HTRF agonist activity assay in CHO-K1 cells expressing GIPR. As to Activity against human GIPR (EC50 nM): 5% FBS, 0.1% Casein. Format: cell-based. In outline: (§1)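 Clonal CHO-K1 lines, 5000 cells/well, exposed to polypeptides for 30 min at 37°C. Intracellular cAMP read by HTRF (cAMP-d2 conjugate plus anti-cAMP-Eu cryptate in lysis buffer). Relative EC50 from four-parameter nonlinear fit of percent maximum response against concentration.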

A further data set has as its target T2, human GCGR (Homo sapiens, UniProt P47871).
T2 construct: expressed in transfected cells; host or cells: CHO-K1 clonal cell line
Nature of the data set: cAMP HTRF agonist activity assay in CHO-K1 cells expressing GCGR. As to Activity against human GCGR (EC50 nM): 5% FBS, 0.1% Casein. Format: cell-based. Here is the method: Functional activity was determined in CHO-K1 clonal cell lines expressing GIPR, GLP-1R, and GCGR. […] Each recipient cell (5000 cells/well) was added to an SV 96-well plate (Cisbio, 66PL96025) and incubated with the prepared polypeptide at 37°Cfor 30 min. The resulting increase in intracellular cAMP was quantitatively measured using the cAMP-GS dynamic HTRF assay kit (Cisbio, 62AM4PEJ). Briefly, the intracellular cAMP levels were determined by adding cAMP-d2 conjugate in cell lysis buffer, followed by the antibody anti-cAMP-Eu cryptate (also in cell lysis buffer).
Using the maximum response percentage vs. the added polypeptide concentration, the relative EC50 values were derived through nonlinear regression analysis and fitted to a four-parameter logarithmic equation. For specific data, refer to Tables 7-1 to 7-8 below. […]

A further data set concerns the target T3, human GLP-1R (Homo sapiens, UniProt P43220).
T3 construct: expressed in transfected cells; host or cells: CHO-K1 clonal cell line
Nature of the data set: cAMP HTRF agonist activity assay in CHO-K1 cells expressing GLP-1R. As to Activity against human GLP-1R (EC50 nM): 5% FBS, 0.1% Casein. The data set is classed as cell-based. In outline: as §1
For orientation: Time-resolved FRET reads energy transfer from a long-lived donor to a nearby acceptor.

Data set [1] is described as follows: Pharmacokinetics in mice after single intravenous injection. The following applies: mouse, in vivo, male C57 mice, single intravenous dose 200 nmol/kg, plasma. Details: species or system C57 mice. In outline:
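Male C57 mice (~25 g, 4-6 weeks, n=3) received a single i.v. dose of 200 nmol/kg in 1×PBS. Plasma collected from 5 min to 72 h was methanol-precipitated with verapamil internal standard and quantified by LC-MS (ESI positive, MRM); PK parameters were calculated by PKSolver.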

Data set [2] has as its target T4, human glucose-dependent insulinotropic polypeptide receptor (human, UniProt P48546 22-466).
T4 sequence (looked up): T1 sequence (P48546 22-466)
Nature of the data set: cell-based or functional assay.

T2 sequence (P47871 26-477): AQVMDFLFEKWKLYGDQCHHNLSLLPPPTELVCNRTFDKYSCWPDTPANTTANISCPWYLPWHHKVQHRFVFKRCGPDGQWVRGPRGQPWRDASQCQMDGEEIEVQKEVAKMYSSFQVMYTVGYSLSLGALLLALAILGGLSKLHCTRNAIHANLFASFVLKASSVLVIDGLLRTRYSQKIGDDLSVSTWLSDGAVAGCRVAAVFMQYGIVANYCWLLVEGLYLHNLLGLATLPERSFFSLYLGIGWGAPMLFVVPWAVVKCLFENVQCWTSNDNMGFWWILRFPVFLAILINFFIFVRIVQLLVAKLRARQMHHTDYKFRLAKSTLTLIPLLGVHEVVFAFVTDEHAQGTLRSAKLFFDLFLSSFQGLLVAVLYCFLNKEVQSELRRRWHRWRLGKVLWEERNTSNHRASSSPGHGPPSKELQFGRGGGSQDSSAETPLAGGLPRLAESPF
T3 sequence (P43220 24-463): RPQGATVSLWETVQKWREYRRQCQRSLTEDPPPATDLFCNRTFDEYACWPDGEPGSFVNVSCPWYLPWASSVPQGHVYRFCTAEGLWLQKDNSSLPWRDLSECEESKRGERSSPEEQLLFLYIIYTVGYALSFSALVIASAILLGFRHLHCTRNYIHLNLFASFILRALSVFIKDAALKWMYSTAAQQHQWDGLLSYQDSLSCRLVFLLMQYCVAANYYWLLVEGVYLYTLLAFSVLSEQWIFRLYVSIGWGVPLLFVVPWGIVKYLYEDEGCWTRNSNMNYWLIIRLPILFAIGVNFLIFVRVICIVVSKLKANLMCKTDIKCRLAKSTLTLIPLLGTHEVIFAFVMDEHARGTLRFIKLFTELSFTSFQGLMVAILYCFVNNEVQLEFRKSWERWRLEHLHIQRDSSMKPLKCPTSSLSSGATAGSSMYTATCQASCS

The EC50 is the midpoint of the concentration-response curve. As for `CC[C@H](C)[C@H](NC(=O)[C@H](CC(C)C)NC(=O)[C@H](Cc1c[nH]c2ccccc12)NC(=O)[C@H](CCC(=O)O)NC(=O)[C@@H](NC(=O)[C@H](Cc1ccccc1)NC(=O)[C@H](CCC(=O)O)NC(=O)C(C)(CC)NC(=O)[C@H](C)NC(=O)[C@H](C)NC(=O)[C@H](CCCCN)NC(=O)[C@H](CCCCNC(=O)COCCOCCNC(=O)COCCOCCNC(=O)CC[C@H](NC(=O)CCCCCCCCCCCCCCCCCCC(=O)O)C(=O)O)NC(=O)[C@H](CCC(=O)O)NC(=O)[C@H](CC(C)C)NC(=O)[C@H](CC(C)C)NC(=O)[C@](C)(CCCCN)NC(=O)[C@H](CO)NC(=O)[C@H](CC(C)C)NC(=O)[C@H](CC(=O)O)NC(=O)[C@H](CO)NC(=O)[C@@H](NC(=O)[C@H](Cc1ccccc1)NC(=O)[C@@H](NC(=O)CNC(=O)[C@H](Cc1c[nH]cn1)NC(=O)C(C)(C)NC(=O)[C@@H](N)Cc1c[nH]cn1)[C@@H](C)O)[C@@H](C)O)C(C)C)C(=O)N[C@@H](CCC(=O)O)C(=O)NCC(=O)NCC(=O)N1CCC[C@H]1C(=O)N[C@@H](CO)C(=O)N[C@@H](CO)C(=O)NCC(=O)N[C@@H](C)C(=O)N1CCC[C@H]1C(=O)N1CCC[C@H]1C(=O)N1CCC[C@H]1C(=O)N[C@@H](CO)C(N)=O` (stereo partly shown) [Compound 0133] (H-H[Aib]HGTFTSDLS[αMeK]LLEK([AEEA-AEEA-γGlu-C20 diacid])KAA[ξIva]EFVEWLIEGGPSSGAPPPS-NH2), the EC50 amounted to 0.002 nM at human GIPR (read-out: Activity against human GIPR (EC50 nM)), 0.03 nM on human GCGR (read-out: Activity against human GCGR (EC50 nM)) and 0.016 nM at human GLP-1R (read-out: Activity against human GLP-1R (EC50 nM)).

What is called AUC(0-inf) is the area under the concentration-time curve extrapolated to infinity. For `CC[C@H](C)[C@H](NC(=O)[C@](C)(CCCCN)NC(=O)[C@H](CO)NC(=O)[C@H](Cc1ccc(O)cc1)NC(=O)[C@H](CC(=O)O)NC(=O)[C@H](CO)NC(=O)[C@@H](NC(=O)[C@H](Cc1ccccc1)NC(=O)[C@@H](NC(=O)CNC(=O)[C@H](Cc1c[nH]cn1)NC(=O)C(C)(C)NC(=O)[C@@H](N)Cc1c[nH]cn1)[C@@H](C)O)[C@@H](C)O)C(=O)N[C@@H](CC(C)C)C(=O)N[C@@H](CCC(=O)O)C(=O)N[C@@H](CCCCNC(=O)COCCOCCNC(=O)COCCOCCNC(=O)CC[C@H](NC(=O)CCCCCCCCCCCCCCCCCCC(=O)O)C(=O)O)C(=O)N[C@@H](CCCCN)C(=O)N[C@@H](C)C(=O)N[C@@H](C)C(=O)N[C@@H](CCC(N)=O)C(=O)N[C@@H](CCC(=O)O)C(=O)N[C@@H](Cc1ccccc1)C(=O)N[C@H](C(=O)N[C@@H](CCC(=O)O)C(=O)N[C@@H](Cc1c[nH]c2ccccc12)C(=O)N[C@@H](CC(C)C)C(=O)N[C@@H](CC(C)C)C(=O)N[C@@H](C)C(=O)NCC(=O)NCC(=O)N1CCC[C@H]1C(=O)N[C@@H](CO)C(=O)N[C@@H](CO)C(=O)NCC(=O)N[C@@H](C)C(=O)N1CCC[C@H]1C(=O)N1CCC[C@H]1C(=O)N1CCC[C@H]1C(=O)N[C@@H](CO)C(N)=O)C(C)C` [Compound 0119] (H-H[Aib]HGTFTSDYS[αMeK]ILEK([AEEA-AEEA-γGlu-C20 diacid])KAAQEFVEWLLAGGPSSGAPPPS-NH2), the EC50 at human GIPR was 0.005 nM; on human GCGR it was 0.087 nM; on human GLP-1R, 0.023 nM. The AUC(0-inf) in data set [1] was 55.9 µM·h. For the same molecule, the C0 in data set [1] amounted to 6.17 µM. Moreover, in data set [1] (read-out: CLp), the clearance came to 3.48 mL/h/kg. For the same molecule, in data set [1] (read-out: T1/2 (converted)), the half-life was 13 h.

B1: Compound No. 0114 (peptide)
peptide: Y[Aib]QGTFTSDYS[αMeK]LLEK([AEEA-AEEA-γGlu-C20 diacid])KAAQEFVEWLLAGGPSSGAPPPS-NH2
modifications: N-terminus assumed
SMILES: CC(C)C[C@H](NC(=O)[C@H](CC(C)C)NC(=O)[C@H](Cc1c[nH]c2ccccc12)NC(=O)[C@H](CCC(=O)O)NC(=O)[C@@H](NC(=O)[C@H](Cc1ccccc1)NC(=O)[C@H](CCC(=O)O)NC(=O)[C@H](CCC(N)=O)NC(=O)[C@H](C)NC(=O)[C@H](C)NC(=O)[C@H](CCCCN)NC(=O)[C@H](CCCCNC(=O)COCCOCCNC(=O)COCCOCCNC(=O)CC[C@H](NC(=O)CCCCCCCCCCCCCCCCCCC(=O)O)C(=O)O)NC(=O)[C@H](CCC(=O)O)NC(=O)[C@H](CC(C)C)NC(=O)[C@H](CC(C)C)NC(=O)[C@](C)(CCCCN)NC(=O)[C@H](CO)NC(=O)[C@H](Cc1ccc(O)cc1)NC(=O)[C@H](CC(=O)O)NC(=O)[C@H](CO)NC(=O)[C@@H](NC(=O)[C@H](Cc1ccccc1)NC(=O)[C@@H](NC(=O)CNC(=O)[C@H](CCC(N)=O)NC(=O)C(C)(C)NC(=O)[C@@H](N)Cc1ccc(O)cc1)[C@@H](C)O)[C@@H](C)O)C(C)C)C(=O)N[C@@H](C)C(=O)NCC(=O)NCC(=O)N1CCC[C@H]1C(=O)N[C@@H](CO)C(=O)N[C@@H](CO)C(=O)NCC(=O)N[C@@H](C)C(=O)N1CCC[C@H]1C(=O)N1CCC[C@H]1C(=O)N1CCC[C@H]1C(=O)N[C@@H](CO)C(N)=O
Take B1: the “Activity against human GIPR (EC50 nM)” value in data set [2] turned out to be 0.01 nM.

B2: Compound No. 0117 (peptide)
peptide: H[Aib]HGTFTSDYS[αMeK]LLEK([AEEA-AEEA-γGlu-C20 diacid])QAAQEFVEWLLAGGPSSGAPPPS-NH2
modifications: N-terminus assumed
SMILES: CC(C)C[C@H](NC(=O)[C@H](CC(C)C)NC(=O)[C@H](Cc1c[nH]c2ccccc12)NC(=O)[C@H](CCC(=O)O)NC(=O)[C@@H](NC(=O)[C@H](Cc1ccccc1)NC(=O)[C@H](CCC(=O)O)NC(=O)[C@H](CCC(N)=O)NC(=O)[C@H](C)NC(=O)[C@H](C)NC(=O)[C@H](CCC(N)=O)NC(=O)[C@H](CCCCNC(=O)COCCOCCNC(=O)COCCOCCNC(=O)CC[C@H](NC(=O)CCCCCCCCCCCCCCCCCCC(=O)O)C(=O)O)NC(=O)[C@H](CCC(=O)O)NC(=O)[C@H](CC(C)C)NC(=O)[C@H](CC(C)C)NC(=O)[C@](C)(CCCCN)NC(=O)[C@H](CO)NC(=O)[C@H](Cc1ccc(O)cc1)NC(=O)[C@H](CC(=O)O)NC(=O)[C@H](CO)NC(=O)[C@@H](NC(=O)[C@H](Cc1ccccc1)NC(=O)[C@@H](NC(=O)CNC(=O)[C@H](Cc1c[nH]cn1)NC(=O)C(C)(C)NC(=O)[C@@H](N)Cc1c[nH]cn1)[C@@H](C)O)[C@@H](C)O)C(C)C)C(=O)N[C@@H](C)C(=O)NCC(=O)NCC(=O)N1CCC[C@H]1C(=O)N[C@@H](CO)C(=O)N[C@@H](CO)C(=O)NCC(=O)N[C@@H](C)C(=O)N1CCC[C@H]1C(=O)N1CCC[C@H]1C(=O)N1CCC[C@H]1C(=O)N[C@@H](CO)C(N)=O
For the molecule B2, the “Activity against human GIPR (EC50 nM)” value in data set [2] was 0.003 nM.

B3: Compound No. 0118 (peptide)
peptide: H[Aib]HGTFTSDYS[αMeK]LLEK([AEEA-AEEA-γGlu-C17 diacid])IAAQEFVEWLLAGGPSSGAPPPS-NH2
modifications: N-terminus assumed
SMILES: CC[C@H](C)[C@H](NC(=O)[C@H](CCCCNC(=O)COCCOCCNC(=O)COCCOCCNC(=O)CC[C@H](NC(=O)CCCCCCCCCCCCCCCC(=O)O)C(=O)O)NC(=O)[C@H](CCC(=O)O)NC(=O)[C@H](CC(C)C)NC(=O)[C@H](CC(C)C)NC(=O)[C@](C)(CCCCN)NC(=O)[C@H](CO)NC(=O)[C@H](Cc1ccc(O)cc1)NC(=O)[C@H](CC(=O)O)NC(=O)[C@H](CO)NC(=O)[C@@H](NC(=O)[C@H](Cc1ccccc1)NC(=O)[C@@H](NC(=O)CNC(=O)[C@H](Cc1c[nH]cn1)NC(=O)C(C)(C)NC(=O)[C@@H](N)Cc1c[nH]cn1)[C@@H](C)O)[C@@H](C)O)C(=O)N[C@@H](C)C(=O)N[C@@H](C)C(=O)N[C@@H](CCC(N)=O)C(=O)N[C@@H](CCC(=O)O)C(=O)N[C@@H](Cc1ccccc1)C(=O)N[C@H](C(=O)N[C@@H](CCC(=O)O)C(=O)N[C@@H](Cc1c[nH]c2ccccc12)C(=O)N[C@@H](CC(C)C)C(=O)N[C@@H](CC(C)C)C(=O)N[C@@H](C)C(=O)NCC(=O)NCC(=O)N1CCC[C@H]1C(=O)N[C@@H](CO)C(=O)N[C@@H](CO)C(=O)NCC(=O)N[C@@H](C)C(=O)N1CCC[C@H]1C(=O)N1CCC[C@H]1C(=O)N1CCC[C@H]1C(=O)N[C@@H](CO)C(N)=O)C(C)C
B3: the “Activity against human GIPR (EC50 nM)” value in data set [2] came out at 0.004 nM.
